These results are taken from article PMC6757289, “Design and Characterization of SGK3-PROTAC1, an Isoform Specific SGK3 Kinase PROTAC Degrader” (ACS Chemical Biology, 2019).

The structures appear in SMILES notation. Read-outs that look alike come from different tables or passages of the source.

Holding throughout (assay): kinase profiling panel
Holding throughout (assay type): biochemical

One experiment concerns the target MNK1 (Homo sapiens, UniProt Q9BUB5). The conditions noted are these: read-out: % Activity Remaining. An excerpt:
(§1) Protein kinase profiling against a Dundee panel of 140 protein kinases was undertaken at the International Centre for Protein Kinase Profiling. The result for each kinase was presented as a mean kinase activity of the reaction taken in triplicate relative to a control sample treated with DMSO. Assay conditions and abbreviations are available at http://www.kinase-screen.mrc.ac.uk.

The target in a further experiment is HIPK2 (Homo sapiens, UniProt Q9H2X6). The settings on record: read-out: % Activity Remaining.
Excerpt: as §1

In another experiment the target is SRPK1 (Homo sapiens, UniProt Q96SB4). The settings on record: read-out: % Activity Remaining.
Excerpt: as §1

Another experiment deals with SmMLCK (Homo sapiens, UniProt Q15746).
Excerpt: as §1

The next experiment addresses JAK2 (Homo sapiens, UniProt O60674). The settings on record: read-out: % Activity Remaining.
Excerpt: as §1

In the next experiment the target is T1, MKK6 (Homo sapiens, UniProt P52564).
T1 sequence (P52564 1-334): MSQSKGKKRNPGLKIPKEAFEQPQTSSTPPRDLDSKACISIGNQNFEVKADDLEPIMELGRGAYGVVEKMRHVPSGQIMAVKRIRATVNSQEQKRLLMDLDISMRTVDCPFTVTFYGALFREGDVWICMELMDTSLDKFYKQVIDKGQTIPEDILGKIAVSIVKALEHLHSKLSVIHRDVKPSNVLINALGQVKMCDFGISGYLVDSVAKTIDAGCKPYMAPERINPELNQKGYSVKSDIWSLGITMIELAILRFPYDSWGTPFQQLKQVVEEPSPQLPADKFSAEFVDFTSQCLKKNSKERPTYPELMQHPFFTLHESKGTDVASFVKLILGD
The conditions noted are these: read-out: % Activity Remaining.
Excerpt: as §1

A further experiment has as its target T2, IKK beta (Homo sapiens, UniProt O14920).
T2 sequence (O14920 1-756): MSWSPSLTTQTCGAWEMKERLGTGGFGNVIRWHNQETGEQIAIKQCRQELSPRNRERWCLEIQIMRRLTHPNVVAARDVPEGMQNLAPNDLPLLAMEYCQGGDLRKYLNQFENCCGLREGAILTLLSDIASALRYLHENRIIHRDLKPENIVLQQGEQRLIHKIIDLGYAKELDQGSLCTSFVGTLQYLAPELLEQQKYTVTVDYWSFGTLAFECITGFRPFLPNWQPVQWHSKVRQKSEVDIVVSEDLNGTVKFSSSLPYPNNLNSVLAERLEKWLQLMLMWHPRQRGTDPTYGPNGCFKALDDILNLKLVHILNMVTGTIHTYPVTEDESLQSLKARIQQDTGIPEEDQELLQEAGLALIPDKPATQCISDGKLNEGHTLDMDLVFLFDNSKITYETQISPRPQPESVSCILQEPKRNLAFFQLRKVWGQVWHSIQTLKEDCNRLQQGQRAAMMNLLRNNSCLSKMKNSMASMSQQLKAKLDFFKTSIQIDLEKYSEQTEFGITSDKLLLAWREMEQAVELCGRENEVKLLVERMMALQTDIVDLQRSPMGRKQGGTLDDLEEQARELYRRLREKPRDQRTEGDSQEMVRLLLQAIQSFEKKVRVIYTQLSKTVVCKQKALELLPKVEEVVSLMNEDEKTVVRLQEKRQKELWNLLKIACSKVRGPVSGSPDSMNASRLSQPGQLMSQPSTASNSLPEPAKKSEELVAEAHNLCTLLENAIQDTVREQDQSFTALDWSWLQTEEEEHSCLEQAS
The settings on record: read-out: % Activity Remaining.
Excerpt: as §1

A further experiment addresses IRAK1 (Homo sapiens, UniProt P51617). The conditions noted are these: read-out: % Activity Remaining.
Excerpt: as §1

A further experiment deals with MELK (Homo sapiens, UniProt Q14680). The settings on record: read-out: % Activity Remaining.
Excerpt: as §1

Another experiment addresses MLK3 (Homo sapiens, UniProt Q16584). The conditions noted are these: read-out: % Activity Remaining.
Excerpt: as §1

For a further experiment, the target named is NEK6 (Homo sapiens, UniProt Q9HC98). The settings on record: read-out: % Activity Remaining.
Excerpt: as §1

The next experiment addresses T3, GCK (Homo sapiens, UniProt Q12851).
T3 sequence (Q12851 1-820): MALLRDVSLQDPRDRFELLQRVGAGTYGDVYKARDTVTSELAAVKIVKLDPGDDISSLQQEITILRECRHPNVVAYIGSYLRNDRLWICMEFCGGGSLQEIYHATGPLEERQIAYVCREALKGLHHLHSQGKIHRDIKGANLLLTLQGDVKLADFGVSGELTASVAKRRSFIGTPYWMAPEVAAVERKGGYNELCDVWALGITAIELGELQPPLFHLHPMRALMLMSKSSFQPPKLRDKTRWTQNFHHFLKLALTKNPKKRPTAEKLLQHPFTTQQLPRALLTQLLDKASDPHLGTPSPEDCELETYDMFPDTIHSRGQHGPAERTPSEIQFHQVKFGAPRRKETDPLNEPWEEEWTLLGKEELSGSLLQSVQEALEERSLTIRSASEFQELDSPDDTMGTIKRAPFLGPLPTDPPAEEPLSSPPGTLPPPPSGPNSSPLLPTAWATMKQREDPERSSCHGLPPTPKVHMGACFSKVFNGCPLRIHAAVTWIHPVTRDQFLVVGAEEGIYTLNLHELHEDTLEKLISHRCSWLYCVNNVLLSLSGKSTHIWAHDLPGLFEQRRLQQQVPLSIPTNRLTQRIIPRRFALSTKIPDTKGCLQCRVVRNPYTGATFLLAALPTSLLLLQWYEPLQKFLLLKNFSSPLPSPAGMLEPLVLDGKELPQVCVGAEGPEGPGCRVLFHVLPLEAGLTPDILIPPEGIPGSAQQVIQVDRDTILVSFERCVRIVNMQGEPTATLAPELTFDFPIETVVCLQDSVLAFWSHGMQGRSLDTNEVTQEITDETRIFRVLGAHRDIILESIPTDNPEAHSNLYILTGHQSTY
The settings on record: read-out: % Activity Remaining.
Excerpt: as §1

The target in the next experiment is TTBK1 (Homo sapiens, UniProt Q5TCY1). The settings on record: read-out: % Activity Remaining.
Excerpt: as §1

The next experiment has as its target p38 beta MAPK (Homo sapiens, UniProt Q15759). The conditions noted are these: read-out: % Activity Remaining.
Excerpt: as §1

Chain of p38 beta MAPK (Q15759 whole entry): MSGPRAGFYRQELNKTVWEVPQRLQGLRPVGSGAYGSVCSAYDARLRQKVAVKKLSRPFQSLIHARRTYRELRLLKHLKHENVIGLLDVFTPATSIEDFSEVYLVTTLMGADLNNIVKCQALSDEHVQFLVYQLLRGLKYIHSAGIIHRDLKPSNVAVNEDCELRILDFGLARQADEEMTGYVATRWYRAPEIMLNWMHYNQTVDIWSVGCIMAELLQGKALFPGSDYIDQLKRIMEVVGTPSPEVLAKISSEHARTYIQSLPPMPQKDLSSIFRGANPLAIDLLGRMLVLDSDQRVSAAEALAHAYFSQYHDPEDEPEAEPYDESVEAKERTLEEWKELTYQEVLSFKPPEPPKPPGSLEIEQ
Chain of NEK6 (Q9HC98 whole entry): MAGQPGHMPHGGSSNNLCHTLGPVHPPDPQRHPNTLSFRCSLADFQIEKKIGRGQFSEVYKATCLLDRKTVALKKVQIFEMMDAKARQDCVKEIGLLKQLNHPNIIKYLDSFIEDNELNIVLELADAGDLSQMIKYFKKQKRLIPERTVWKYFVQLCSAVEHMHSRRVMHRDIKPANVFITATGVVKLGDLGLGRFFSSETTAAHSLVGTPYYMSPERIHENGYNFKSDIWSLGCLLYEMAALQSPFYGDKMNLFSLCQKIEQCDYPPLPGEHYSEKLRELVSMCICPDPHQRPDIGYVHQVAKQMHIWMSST
Chain of SRPK1 (Q96SB4 whole entry): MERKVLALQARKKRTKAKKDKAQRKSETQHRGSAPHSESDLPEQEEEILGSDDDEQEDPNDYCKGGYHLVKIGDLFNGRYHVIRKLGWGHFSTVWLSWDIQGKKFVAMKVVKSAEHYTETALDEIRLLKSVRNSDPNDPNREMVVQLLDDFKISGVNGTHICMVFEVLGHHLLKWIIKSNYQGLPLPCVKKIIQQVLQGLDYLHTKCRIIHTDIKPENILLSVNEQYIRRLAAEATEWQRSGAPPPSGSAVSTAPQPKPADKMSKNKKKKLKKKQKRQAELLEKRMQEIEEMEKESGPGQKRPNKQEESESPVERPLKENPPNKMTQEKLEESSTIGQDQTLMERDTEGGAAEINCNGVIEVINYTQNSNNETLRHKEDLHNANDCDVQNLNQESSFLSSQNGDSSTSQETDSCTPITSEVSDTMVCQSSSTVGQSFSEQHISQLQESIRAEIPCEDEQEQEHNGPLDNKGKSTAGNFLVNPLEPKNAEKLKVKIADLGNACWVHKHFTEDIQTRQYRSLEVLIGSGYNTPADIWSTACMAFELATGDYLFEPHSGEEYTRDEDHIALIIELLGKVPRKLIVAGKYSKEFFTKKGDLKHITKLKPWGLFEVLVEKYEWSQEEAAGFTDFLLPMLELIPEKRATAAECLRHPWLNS
Chain of MNK1 (Q9BUB5 whole entry): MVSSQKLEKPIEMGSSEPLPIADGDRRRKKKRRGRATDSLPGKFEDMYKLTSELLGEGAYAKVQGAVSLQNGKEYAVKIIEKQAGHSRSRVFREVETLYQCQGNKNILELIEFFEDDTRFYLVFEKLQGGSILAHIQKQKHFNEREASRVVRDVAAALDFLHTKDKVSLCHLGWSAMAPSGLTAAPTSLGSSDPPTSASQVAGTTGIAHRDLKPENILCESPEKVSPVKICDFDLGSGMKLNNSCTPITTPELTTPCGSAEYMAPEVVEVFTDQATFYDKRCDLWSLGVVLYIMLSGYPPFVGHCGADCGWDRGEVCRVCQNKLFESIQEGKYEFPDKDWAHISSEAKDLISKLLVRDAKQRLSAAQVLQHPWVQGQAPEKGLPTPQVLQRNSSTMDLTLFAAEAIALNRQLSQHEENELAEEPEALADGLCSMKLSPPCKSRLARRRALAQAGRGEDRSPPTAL
Chain of TTBK1 (Q5TCY1 whole entry): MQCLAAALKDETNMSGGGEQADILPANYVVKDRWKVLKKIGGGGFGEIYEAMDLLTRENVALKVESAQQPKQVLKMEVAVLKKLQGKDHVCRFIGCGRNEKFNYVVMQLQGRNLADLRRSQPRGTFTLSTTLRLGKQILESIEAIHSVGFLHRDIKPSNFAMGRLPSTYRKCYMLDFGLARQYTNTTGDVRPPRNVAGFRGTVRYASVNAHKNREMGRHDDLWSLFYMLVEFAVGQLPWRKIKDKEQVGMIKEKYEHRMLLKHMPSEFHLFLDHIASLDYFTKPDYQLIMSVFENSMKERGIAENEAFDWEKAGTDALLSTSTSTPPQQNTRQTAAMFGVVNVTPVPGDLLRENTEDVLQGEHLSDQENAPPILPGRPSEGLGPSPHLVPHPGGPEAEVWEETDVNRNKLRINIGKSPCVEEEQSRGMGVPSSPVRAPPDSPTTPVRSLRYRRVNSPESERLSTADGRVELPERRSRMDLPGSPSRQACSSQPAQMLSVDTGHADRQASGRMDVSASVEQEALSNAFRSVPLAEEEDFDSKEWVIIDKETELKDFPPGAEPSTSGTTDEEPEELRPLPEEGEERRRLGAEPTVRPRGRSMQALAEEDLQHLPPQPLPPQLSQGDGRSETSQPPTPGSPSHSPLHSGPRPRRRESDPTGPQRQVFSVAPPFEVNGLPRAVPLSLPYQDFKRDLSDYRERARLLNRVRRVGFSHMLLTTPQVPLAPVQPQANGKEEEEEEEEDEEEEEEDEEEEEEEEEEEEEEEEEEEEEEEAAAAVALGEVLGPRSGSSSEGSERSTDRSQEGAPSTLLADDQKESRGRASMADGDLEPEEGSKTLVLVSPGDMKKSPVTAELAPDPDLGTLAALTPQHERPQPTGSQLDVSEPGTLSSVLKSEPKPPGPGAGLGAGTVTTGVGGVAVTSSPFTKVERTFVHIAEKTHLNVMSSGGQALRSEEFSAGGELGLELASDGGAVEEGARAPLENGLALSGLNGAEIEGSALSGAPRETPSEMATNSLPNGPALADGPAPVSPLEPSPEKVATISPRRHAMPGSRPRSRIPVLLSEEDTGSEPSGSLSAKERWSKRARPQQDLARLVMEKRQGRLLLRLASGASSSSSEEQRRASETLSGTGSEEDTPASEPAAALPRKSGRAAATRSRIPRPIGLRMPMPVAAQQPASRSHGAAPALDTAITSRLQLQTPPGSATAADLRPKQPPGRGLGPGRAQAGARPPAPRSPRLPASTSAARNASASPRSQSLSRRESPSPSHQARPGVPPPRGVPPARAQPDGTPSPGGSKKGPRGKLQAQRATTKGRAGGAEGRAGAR
Chain of MELK (Q14680 whole entry): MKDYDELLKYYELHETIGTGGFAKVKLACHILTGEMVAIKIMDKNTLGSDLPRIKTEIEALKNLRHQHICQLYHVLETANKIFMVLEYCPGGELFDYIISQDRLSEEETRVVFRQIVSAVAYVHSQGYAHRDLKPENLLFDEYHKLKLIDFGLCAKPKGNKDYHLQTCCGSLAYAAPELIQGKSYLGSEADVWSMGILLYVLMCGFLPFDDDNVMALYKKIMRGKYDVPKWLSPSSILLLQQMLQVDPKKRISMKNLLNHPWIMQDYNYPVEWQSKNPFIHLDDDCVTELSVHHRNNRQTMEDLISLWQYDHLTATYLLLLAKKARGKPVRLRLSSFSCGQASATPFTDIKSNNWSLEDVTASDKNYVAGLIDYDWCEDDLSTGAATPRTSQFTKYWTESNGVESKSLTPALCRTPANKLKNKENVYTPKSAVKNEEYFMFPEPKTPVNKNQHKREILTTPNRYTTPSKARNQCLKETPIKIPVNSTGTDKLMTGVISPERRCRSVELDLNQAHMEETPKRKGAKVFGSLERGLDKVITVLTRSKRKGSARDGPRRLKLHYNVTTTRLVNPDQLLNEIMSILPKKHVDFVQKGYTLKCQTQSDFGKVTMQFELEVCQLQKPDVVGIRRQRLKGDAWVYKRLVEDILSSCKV
Chain of HIPK2 (Q9H2X6 whole entry): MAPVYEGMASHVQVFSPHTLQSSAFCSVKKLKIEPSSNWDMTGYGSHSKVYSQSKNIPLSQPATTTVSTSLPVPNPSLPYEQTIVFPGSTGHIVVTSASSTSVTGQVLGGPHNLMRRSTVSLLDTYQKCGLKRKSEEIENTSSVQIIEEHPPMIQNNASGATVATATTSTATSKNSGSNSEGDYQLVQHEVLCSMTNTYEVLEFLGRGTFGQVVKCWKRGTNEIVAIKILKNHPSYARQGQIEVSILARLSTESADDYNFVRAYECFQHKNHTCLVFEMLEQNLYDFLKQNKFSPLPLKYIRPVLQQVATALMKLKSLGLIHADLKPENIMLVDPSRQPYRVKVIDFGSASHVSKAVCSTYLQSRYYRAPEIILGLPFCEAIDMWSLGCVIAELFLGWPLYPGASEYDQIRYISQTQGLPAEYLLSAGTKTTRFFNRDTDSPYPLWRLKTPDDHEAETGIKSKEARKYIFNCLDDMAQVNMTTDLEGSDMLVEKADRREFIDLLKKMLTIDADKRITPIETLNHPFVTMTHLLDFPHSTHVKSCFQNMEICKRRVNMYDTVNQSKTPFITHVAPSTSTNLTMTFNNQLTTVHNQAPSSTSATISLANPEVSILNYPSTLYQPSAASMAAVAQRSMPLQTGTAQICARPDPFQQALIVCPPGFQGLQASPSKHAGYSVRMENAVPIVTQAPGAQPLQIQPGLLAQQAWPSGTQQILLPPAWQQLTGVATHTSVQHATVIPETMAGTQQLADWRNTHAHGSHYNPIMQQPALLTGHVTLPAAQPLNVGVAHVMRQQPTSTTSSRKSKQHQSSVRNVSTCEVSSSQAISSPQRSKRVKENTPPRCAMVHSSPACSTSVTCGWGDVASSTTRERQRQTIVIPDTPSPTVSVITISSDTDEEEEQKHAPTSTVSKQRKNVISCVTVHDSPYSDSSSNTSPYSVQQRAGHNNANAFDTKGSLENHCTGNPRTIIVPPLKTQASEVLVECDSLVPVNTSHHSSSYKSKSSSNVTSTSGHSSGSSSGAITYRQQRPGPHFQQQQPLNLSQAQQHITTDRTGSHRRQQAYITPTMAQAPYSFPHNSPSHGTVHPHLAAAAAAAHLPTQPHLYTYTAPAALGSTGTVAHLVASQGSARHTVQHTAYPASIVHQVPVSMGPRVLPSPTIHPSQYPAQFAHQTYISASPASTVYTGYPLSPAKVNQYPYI

A word on the remaining activity: it is the signal under treatment as a percentage of the control signal. `COc1ccc(Cl)c(S(=O)(=O)Nc2ccc(-c3nc(OC[C@H]4CNCCO4)c4c(C)n[nH]c4n3)cc2)c1` [290-R, reference compound]: the remaining activity at 1 µM at MNK1 is 87%; at HIPK2 it was 50%; on SRPK1 it was 94%; at SmMLCK, 23%; on JAK2 it was 112%; on MKK6, 102%. Besides, the remaining activity at 1 µM at IKK beta was found to be 102%; at IRAK1, 93%; at MELK, 11%; at MLK3, 10%; on NEK6, 88%; on GCK, 90%. Moreover, the remaining activity at 1 µM amounted to 109% on TTBK1 and 99% on p38 beta MAPK.

As to `Cc1ccc(F)c(S(=O)(=O)Nc2ccc(-c3nc(OC[C@H]4CNCCO4)c4cn[nH]c4n3)cc2)c1` [308-R, reference compound], the remaining activity at 1 µM turned out to be 77% on MNK1; 47% at HIPK2; 119% at SRPK1; 74% at SmMLCK; 94% at JAK2; 66% on MKK6. For the same molecule, the remaining activity at 1 µM on IKK beta came to 67%; on IRAK1 it was 88%; on MELK, 19%; on MLK3, 24%; on NEK6, 91%; at GCK, 80%. In addition, the remaining activity at 1 µM at TTBK1 (1 µM) is 91%; at p38 beta MAPK, 116%.

On to `Cc1ccc(F)c(S(=O)(=O)Nc2ccc(-c3nc(OC[C@H]4CN(CCCCCCOCCOCCOCC(=O)N[C@H](C(=O)N5C[C@H](O)C[C@H]5C(=O)NCc5ccc(-c6scnc6C)cc5)C(C)(C)C)CCO4)c4cn[nH]c4n3)cc2)c1` [SGK3-PROTAC1], for which the remaining activity at 1 µM on MNK1 (1 µM) came to 108%; at HIPK2 (1 µM) it was 109%; on SRPK1 (1 µM), 96%; on SmMLCK, 53%; at JAK2 (1 µM), 95%; at MKK6 (1 µM), 123%. Moreover, the remaining activity at 1 µM at IKK beta (1 µM) worked out at 100%; on IRAK1 (1 µM), 98%; at MELK (1 µM), 91%; on MLK3 (1 µM), 71%; at NEK6 (1 µM), 106%; at GCK (1 µM), 99%. The remaining activity at 1 µM was determined as 105% on TTBK1 (1 µM) and 107% on p38 beta MAPK (1 µM).

For the molecule `Cc1ccc(F)c(S(=O)(=O)Nc2ccc(-c3nc(OC[C@H]4CN(CCCCCCOCCOCCOCC(=O)N[C@H](C(=O)N5C[C@@H](O)C[C@H]5C(=O)NCc5ccc(-c6scnc6C)cc5)C(C)(C)C)CCO4)c4cn[nH]c4n3)cc2)c1` [cisSGK3-PROTAC1], the remaining activity at 1 µM on MNK1 (1 µM) came out at 103%; at HIPK2 (1 µM), 100%; on SRPK1 (1 µM), 104%; at SmMLCK, 71%; on JAK2 (1 µM) it was 94%; at MKK6 (1 µM), 108%. The remaining activity at 1 µM was 101% on IKK beta (1 µM); 105% at IRAK1 (1 µM); 100% at MELK (1 µM); 76% on MLK3 (1 µM); 111% on NEK6 (1 µM); 96% at GCK (1 µM). The figures for the remaining activity at 1 µM at TTBK1 (1 µM) and at p38 beta MAPK (1 µM) were 113% and 112%, respectively.
